# Tests used:
# B. cereus (+) = experiment: Antibacterial MIC test (CLSI); format: cell-based; settings: MHB liquid medium, 37° C., 24 hours
# Procedure: (§1) The MIC test was conducted in accordance CLSI guidelines. […] As a positive control, Nofloxacin and Vancomycin were used.
# B. coagulans (+) = experiment: Antibacterial MIC test (CLSI); format: cell-based; settings: MHB liquid medium, 37° C., 24 hours
# Procedure: as §1
# B. subtilis (+) = experiment: Antibacterial MIC test (CLSI); format: cell-based; settings: MHB liquid medium, 37° C., 24 hours
# Procedure: as §1
# E. coli (−) = experiment: Antibacterial MIC test (CLSI); format: cell-based; settings: MHB liquid medium, 37° C., 24 hours
# Procedure: as §1
# L. monocytogenes (+) = experiment: Antibacterial MIC test (CLSI); format: cell-based; settings: MHB liquid medium, 37° C., 24 hours
# Procedure: as §1
# M. luteus (+) = experiment: Antibacterial MIC test (CLSI); format: cell-based; settings: MHB liquid medium, 37° C., 24 hours
# Procedure: as §1
# P. acnes (+) = experiment: Antibacterial MIC test (CLSI); format: cell-based; settings: MHB liquid medium, 37° C., 24 hours
# Procedure: as §1
# S. aureus enterica (−) = experiment: Antibacterial MIC test (CLSI); format: cell-based; settings: MHB liquid medium, 37° C., 24 hours
# Procedure: as §1
# S. aureus (+) = settings: MHB liquid medium, 37° C., 24 hours
# Procedure: (§2) The antibacterial activities against Gram-positive bacteria, Gram-negative bacteria or multi-drug resistant bacteria were evaluated for the compounds of the present invention. The MIC test was conducted in accordance CLSI guidelines. E. coli(−), P. aeruginosa(−), and S. enterica(−) were used as Gram-negative bacteria, B. cereus(+), B. subtilis(+), B. coagulans(+), L. monocytogenes(+), M. luteus(+), P. acnes(+), S. epidermidis(+), and S. aureus(+) were used as Gram-positive bacteria. Methicillin-resistant Staphylococcus aureus (MRSA) was used as multi-drug resistant bacteria. The bacterial cells were incubated until the OD600 of the single colonies reached 0.1. […] Subsequently, bacterial cells were incubated at 37° C. for 24 hours, and then the MICs (μg/ ? ) were determined by visual reading and optical density detection at 600 nm (OD600). As a positive control, Nofloxacin and Vancomycin were used.
# S. epidermidis (+) = settings: MHB liquid medium, 37° C., 24 hours
# Procedure: as §2
# MRSA = experiment: Antibacterial MIC test (CLSI); format: cell-based, Methicillin-resistant Staphylococcus aureus; settings: MHB liquid medium, 37° C., 24 hours
# Procedure: as §1
# C. neoformans = settings: RPMI1640 broth, 35° C., 72 hours, visual reading; expressed as a range value
# C. albicans = settings: RPMI1640 broth, 35° C., 48 hours, visual reading; expressed as a range value
# Procedure: An in vitro antifungal susceptibility test was performed in accordance with the US Clinical and Laboratory Standards Institute (CLSI) guidelines to measure the degree of antifungal activity of the compounds synthesized in the Preparation Examples against opportunistic pathogenic fungi. […] The MIC value (μg/ ? ) is expressed as a range value. Specifically, Candida species and Cryptococcus neoformans were incubated in a Sabouraud dextrose agar (SDA) (Sigma-Aldrich) solid medium for 24 and 48 hours, respectively to obtain single colonies. The obtained single colonies were suspended in 0.85% physiological saline to prepare fungal cell suspension (1 to 5×10^6 cells/ ? ). Fungal cells 2000-fold diluted in RPMI1640 broth (Sigma-Aldrich) were seeded on 96-well plates (5×10^2 to 2.5×10^3 cells/ ? , 195 ? /well). Serial two-fold dilutions (128, 64, 32, 16, 8, 4, 2, 1, and 0.5 μg/ ? ) of compounds were prepared by diluting the compounds synthesized according to the above preparation examples. Then, 5 ? from each dilution was added to the well of the 96-well plate containing fungal cell suspension to give a final suspension of 200 ? per well. […] As a positive control, amphotericin B (AMB), which is highly toxic to the human body but is known as a representative antifungal agent, was used.
# C. glabrata = settings: RPMI1640 broth, 35° C., 48 hours, visual reading; expressed as a range value
# A. fumigatus = settings: visual reading; expressed as a range value
smiles,measurement,setting,value
"CCCCC(N)C(=O)Nc1ccc(-c2ccc(Cl)c(Cl)c2)cc1.Cl (racemic) [Compound 31, (R)/(S)-2-amino-N-(3′,4′-dichloro-[1,1′-biphenyl]-4-yl)hexanamide hydrochloride]",MIC B. cereus (+),B. cereus (+),<4 µg/mL
same,MIC B. coagulans (+),B. coagulans (+),<4 µg/mL
same,MIC B. subtilis (+),B. subtilis (+),<4 µg/mL
same,MIC E. coli (−),E. coli (−),<4 µg/mL
same,MIC L. monocytogenes (+),L. monocytogenes (+),<4 µg/mL
same,MIC M. luteus (+),M. luteus (+),<4 µg/mL
same,MIC P. acnes (+),P. acnes (+),<4 µg/mL
same,MIC S. aureus enterica (−),S. aureus enterica (−),8 µg/mL
same,MIC S. aureus (+),S. aureus (+),<4 µg/mL
same,MIC S. epidermidis (+),S. epidermidis (+),<4 µg/mL
same,MIC MRSA,MRSA,<4 µg/mL
same,MIC (μg/mL) C. neoformans,C. neoformans,0.5~4 μg/mL
same,MIC (μg/mL) C. albicans,C. albicans,0.5~4 μg/mL
same,MIC (μg/mL) C. glabrata,C. glabrata,0.5~4 μg/mL
same,MIC (μg/mL) A. fumigatus,A. fumigatus,0.5~4 μg/mL
"CCCCC(NC)C(=O)NCCc1ccc(-c2ccc(Cl)c(Cl)c2)cc1.Cl (racemic) [Compound 85, (R)/(S)-N-(2-(3′,4′-dichloro-[1,1′-biphenyl]-4-yl)ethyl)-2-(methylamino)hexanamide hydrochloride]",MIC B. cereus (+),B. cereus (+),32 µg/mL
same,MIC B. coagulans (+),B. coagulans (+),4 µg/mL
same,MIC B. subtilis (+),B. subtilis (+),16 µg/mL
same,MIC E. coli (−),E. coli (−),>32 µg/mL
same,MIC L. monocytogenes (+),L. monocytogenes (+),16 µg/mL
same,MIC M. luteus (+),M. luteus (+),8 µg/mL
same,MIC P. acnes (+),P. acnes (+),16 µg/mL
same,MIC S. aureus enterica (−),S. aureus enterica (−),>32 µg/mL
same,MIC S. aureus (+),S. aureus (+),16 µg/mL
same,MIC S. epidermidis (+),S. epidermidis (+),16 µg/mL
same,MIC MRSA,MRSA,16 µg/mL
same,MIC (μg/mL) C. neoformans,C. neoformans,0.5~4 μg/mL
same,MIC (μg/mL) C. albicans,C. albicans,0.5~4 μg/mL
same,MIC (μg/mL) C. glabrata,C. glabrata,0.5~4 μg/mL
same,MIC (μg/mL) A. fumigatus,A. fumigatus,0.5~4 μg/mL
"CCCC(NC)C(=O)NCCc1ccc(-c2ccc(Cl)c(Cl)c2)cc1.Cl (racemic) [Compound 84, (R)/(S)-N-(2-(3′,4′-dichloro-[1,1′-biphenyl]-4-yl)ethyl)-2-(methylamino)pentanamide hydrochloride]",MIC B. cereus (+),B. cereus (+),32 µg/mL
same,MIC B. coagulans (+),B. coagulans (+),8 µg/mL
same,MIC B. subtilis (+),B. subtilis (+),16 µg/mL
same,MIC E. coli (−),E. coli (−),>32 µg/mL
same,MIC L. monocytogenes (+),L. monocytogenes (+),16 µg/mL
same,MIC M. luteus (+),M. luteus (+),16 µg/mL
same,MIC P. acnes (+),P. acnes (+),16 µg/mL
same,MIC S. aureus enterica (−),S. aureus enterica (−),>32 µg/mL
same,MIC S. aureus (+),S. aureus (+),16 µg/mL
same,MIC S. epidermidis (+),S. epidermidis (+),16 µg/mL
same,MIC MRSA,MRSA,16 µg/mL
same,MIC (μg/mL) C. neoformans,C. neoformans,2~8 μg/mL
same,MIC (μg/mL) C. albicans,C. albicans,4~1 μg/mL
same,MIC (μg/mL) C. glabrata,C. glabrata,4~1 μg/mL
same,MIC (μg/mL) A. fumigatus,A. fumigatus,4~1 μg/mL
"CCCC(C(=O)NCCc1ccc(-c2ccc(Cl)c(Cl)c2)cc1)N(C)C (racemic) [Compound 92, (R)/(S)-N-(2-(3′,4′-dichloro-[1,1′-biphenyl]-4-yl)ethyl)-2-(dimethylamino)pentanamide]",MIC (μg/mL) C. neoformans,C. neoformans,4~16 μg/mL
same,MIC (μg/mL) C. albicans,C. albicans,8~32 μg/mL
same,MIC (μg/mL) C. glabrata,C. glabrata,8~32 μg/mL
same,MIC (μg/mL) A. fumigatus,A. fumigatus,8~32 μg/mL
"CCn1cc(C(=O)O)c(=O)c2cc(F)c(N3CCNCC3)cc21 [Nofloxacin, reference compound]",MIC B. cereus (+),B. cereus (+),1 µg/mL
same,MIC B. coagulans (+),B. coagulans (+),<0.125 µg/mL
same,MIC B. subtilis (+),B. subtilis (+),<0.125 µg/mL
same,MIC E. coli (−),E. coli (−),<0.125 µg/mL
same,MIC L. monocytogenes (+),L. monocytogenes (+),<0.125 µg/mL
same,MIC M. luteus (+),M. luteus (+),<0.125 µg/mL
same,MIC P. acnes (+),P. acnes (+),<0.125 µg/mL
same,MIC S. aureus enterica (−),S. aureus enterica (−),<0.125 µg/mL
same,MIC MRSA,MRSA,0.5 µg/mL
